Key:
Experiment in all cases: Test D pre-/postemergence herbicide test
lambsquarters = type: in vivo, Chenopodium album; settings: for Plant response rating: Lambsquarters, scale 0 to 100; for Plant response rating, Lambsquarters: scale 0 to 100 (0 no effect, 100 complete control)
Description: (§1) Seeds of plant species selected from bluegrass (annual bluegrass, Poa annua), blackgrass (Alopecurus myosuroides), canarygrass (littleseed canarygrass, Phalaris minor), chickweed (common chickweed, Stellaria media), galium (catchweed bedstraw, Galium aparine), bromegrass, downy (downy bromegrass, Bromus tectorum), field poppy (Papaver rhoeas), field violet (Viola arvensis), foxtail, green (green foxtail, Setaria viridis), deadnettle (henbit deadnettle, Lamium amplexicaule), ryegrass, Italian (Italian ryegrass, Lolium multiflorum), kochia (Kochia scoparia), lambsquarters (Chenopodium album), oilseed rape (Brassica napus), pigweed (Amaranthus retroflexus), chamomile (scentless chamomile, Matricaria inodora), Russian thistle (Salsola kali), speedwell (bird's-eye speedwell, Veronica persica), barley, spring (spring barley, Hordeum vulgare), wheat, spring (spring wheat, Triticum aestivum), buckwheat, wild (wild buckwheat, Polygonum convolvulus), mustard, wild (wild mustard, Sinapis arvensis), oat, wild (wild oat, Avena fatua), radish, wild (wild radish, Raphanus raphanistrum), […]), barley, winter (winter barley, Hordeum vulgare), and wheat, winter (winter wheat, Triticum aestivum) were planted into a silt loam soil and treated preemergence with test chemicals formulated in a non-phytotoxic solvent mixture which included a surfactant. At the same time, these species were planted in pots containing Redi-Earth® planting medium (Scotts Company, 14111 Scottslawn Road, Marysville, Ohio 43041) comprising spaghnum peat moss, vermiculite, wetting agent and starter nutrients and treated with postemergence applications of the test chemicals formulated in the same manner. Plants ranged in height from 2 to 18 cm (1- to 4-leaf stage). Treated plants and controls were maintained in a controlled growth environment for 7 to 21 days after which time all species were compared to controls and visually evaluated. Plant response ratings, summarized in Table D, are based on a scale of 0 to 100 where 0 is no effect and 100 is complete control. A dash (-) response means no test result.

barley, spring = type: in vivo, Hordeum vulgare; settings: for Plant response rating: Barley, Spring, scale 0 to 100; for Plant response rating, Barley, Spring: scale 0 to 100 (0 no effect, 100 complete control)
Description: as §1

windgrass = type: in vivo, Apera spica-venti; settings: for Plant response rating: Postemergence, Windgrass, scale 0 to 100; for Plant response rating, Windgrass: Preemergence, scale 0 to 100 (0 no effect, 100 complete control)
Description: as §1

oat, wild = type: in vivo, Avena fatua; settings: for Plant response rating: Postemergence, Oat, Wild, scale 0 to 100; for Plant response rating, Oat, Wild: Preemergence, scale 0 to 100 (0 no effect, 100 complete control)
Description: as §1

oilseed rape = type: in vivo, Brassica napus; settings: for Plant response rating: Postemergence, Oilseed Rape, scale 0 to 100; for Plant response rating, Oilseed Rape: Preemergence, scale 0 to 100 (0 no effect, 100 complete control)
Description: as §1

bluegrass = type: in vivo, Poa annua; settings: for Plant response rating: Bluegrass, scale 0 to 100; for Plant response rating, Bluegrass: scale 0 to 100 (0 no effect, 100 complete control)
Description: as §1

Russian thistle = type: in vivo, Salsola kali; settings: for Plant response rating: Postemergence, Russian Thistle, scale 0 to 100; for Plant response rating, Russian Thistle: Preemergence, scale 0 to 100 (0 no effect, 100 complete control)
Description: as §1

mustard, wild = type: in vivo, Sinapis arvensis; settings: for Plant response rating: Mustard, Wild, scale 0 to 100; for Plant response rating, Mustard, Wild: scale 0 to 100 (0 no effect, 100 complete control)
Description: as §1

Compound: O=C1NCC(c2ccc(F)c(F)c2)C1C(=O)Nc1ccccc1C(F)(F)F (racemic) [Compound 6]
- Plant response rating (lambsquarters; Postemergence, 16 g ai/ha): 0
- Plant response rating (lambsquarters; Postemergence, 31 g ai/ha): 10
- Plant response rating (lambsquarters; Postemergence, 62 g ai/ha): 20
- Plant response rating (lambsquarters; Postemergence, 125 g ai/ha): 20
- Plant response rating (lambsquarters; Postemergence, 250 g ai/ha): 30
- Plant response rating, Lambsquarters (lambsquarters; Preemergence, 62 g ai/ha): 0
- Plant response rating, Lambsquarters (lambsquarters; Preemergence, 16 g ai/ha): 0
- Plant response rating, Lambsquarters (lambsquarters; Preemergence, 31 g ai/ha): 0
- Plant response rating (lambsquarters; Preemergence, 125 g ai/ha): 0
- Plant response rating (lambsquarters; Preemergence, 250 g ai/ha): 0
- Plant response rating (barley, spring; Postemergence, 16 g ai/ha): 0
- Plant response rating (barley, spring; Postemergence, 31 g ai/ha): 0
- Plant response rating (barley, spring; Postemergence, 62 g ai/ha): 0
- Plant response rating (barley, spring; Postemergence, 125 g ai/ha): 0
- Plant response rating (barley, spring; Postemergence, 250 g ai/ha): 0
- Plant response rating, Barley, Spring (barley, spring; Preemergence, 62 g ai/ha): 0
- Plant response rating, Barley, Spring (barley, spring; Preemergence, 16 g ai/ha): 0
- Plant response rating, Barley, Spring (barley, spring; Preemergence, 31 g ai/ha): 0
- Plant response rating (barley, spring; Preemergence, 125 g ai/ha): 0
- Plant response rating (barley, spring; Preemergence, 250 g ai/ha): 10
- Plant response rating (windgrass; 16 g ai/ha): 0
- Plant response rating (windgrass; 31 g ai/ha): 0
- Plant response rating (windgrass; 62 g ai/ha): 0
- Plant response rating (windgrass; 125 g ai/ha): 0
- Plant response rating (windgrass; 250 g ai/ha): 0
- Plant response rating, Windgrass (windgrass; 62 g ai/ha): 0
- Plant response rating, Windgrass (windgrass; 125 g ai/ha): 100
- Plant response rating, Windgrass (windgrass; 16 g ai/ha): 0
- Plant response rating, Windgrass (windgrass; 31 g ai/ha): 0
- Plant response rating, Windgrass (windgrass; 250 g ai/ha): 100
- Plant response rating (oat, wild; 16 g ai/ha): 0
- Plant response rating (oat, wild; 31 g ai/ha): 0
- Plant response rating (oat, wild; 62 g ai/ha): 0
- Plant response rating (oat, wild; 125 g ai/ha): 0
- Plant response rating (oat, wild; 250 g ai/ha): 5
- Plant response rating, Oat, Wild (oat, wild; 62 g ai/ha): 0
- Plant response rating, Oat, Wild (oat, wild; 125 g ai/ha): 0
- Plant response rating, Oat, Wild (oat, wild; 16 g ai/ha): 0
- Plant response rating, Oat, Wild (oat, wild; 31 g ai/ha): 0
- Plant response rating, Oat, Wild (oat, wild; 250 g ai/ha): 0
- Plant response rating (oilseed rape; 16 g ai/ha): 10
- Plant response rating (oilseed rape; 31 g ai/ha): 10
- Plant response rating (oilseed rape; 62 g ai/ha): 10
- Plant response rating (oilseed rape; 125 g ai/ha): 15
- Plant response rating (oilseed rape; 250 g ai/ha): 20
- Plant response rating, Oilseed Rape (oilseed rape; 62 g ai/ha): 0
- Plant response rating, Oilseed Rape (oilseed rape; 125 g ai/ha): 10
- Plant response rating, Oilseed Rape (oilseed rape; 16 g ai/ha): 0
- Plant response rating, Oilseed Rape (oilseed rape; 31 g ai/ha): 0
- Plant response rating, Oilseed Rape (oilseed rape; 250 g ai/ha): 20
- Plant response rating (bluegrass; Postemergence, 16 g ai/ha): 0
- Plant response rating (bluegrass; Postemergence, 31 g ai/ha): 0
- Plant response rating (bluegrass; Postemergence, 62 g ai/ha): 0
- Plant response rating (bluegrass; Postemergence, 125 g ai/ha): 0
- Plant response rating (bluegrass; Postemergence, 250 g ai/ha): 0
- Plant response rating, Bluegrass (bluegrass; Preemergence, 62 g ai/ha): 0
- Plant response rating, Bluegrass (bluegrass; Preemergence, 16 g ai/ha): 0
- Plant response rating, Bluegrass (bluegrass; Preemergence, 31 g ai/ha): 0
- Plant response rating (bluegrass; Preemergence, 125 g ai/ha): 0
- Plant response rating (bluegrass; Preemergence, 250 g ai/ha): 0
- Plant response rating (Russian thistle; 16 g ai/ha): 0
- Plant response rating (Russian thistle; 31 g ai/ha): 0
- Plant response rating (Russian thistle; 62 g ai/ha): 0
- Plant response rating (Russian thistle; 125 g ai/ha): 0
- Plant response rating (Russian thistle; 250 g ai/ha): 100
- Plant response rating, Russian Thistle (Russian thistle; 62 g ai/ha): 0
- Plant response rating, Russian Thistle (Russian thistle; 125 g ai/ha): 10
- Plant response rating, Russian Thistle (Russian thistle; 16 g ai/ha): 0
- Plant response rating, Russian Thistle (Russian thistle; 31 g ai/ha): 0
- Plant response rating, Russian Thistle (Russian thistle; 250 g ai/ha): 30
- Plant response rating (mustard, wild; Postemergence, 16 g ai/ha): 0
- Plant response rating (mustard, wild; Postemergence, 31 g ai/ha): 0
- Plant response rating (mustard, wild; Postemergence, 125 g ai/ha): 0
- Plant response rating (mustard, wild; Postemergence, 250 g ai/ha): 0
- Plant response rating, Mustard, Wild (mustard, wild; Preemergence, 62 g ai/ha): 0
- Plant response rating, Mustard, Wild (mustard, wild; Preemergence, 16 g ai/ha): 0
- Plant response rating, Mustard, Wild (mustard, wild; Preemergence, 31 g ai/ha): 0
- Plant response rating (mustard, wild; Preemergence, 125 g ai/ha): 10
- Plant response rating (mustard, wild; Preemergence, 250 g ai/ha): 20

Compound: O=C1NCC(c2ccc(F)c(C(F)(F)F)c2)C1C(=O)Nc1cccc(F)c1F (racemic) [Compound 77]
- Plant response rating, Lambsquarters (lambsquarters; Preemergence, 62 g ai/ha): 85
- Plant response rating, Lambsquarters (lambsquarters; Preemergence, 31 g ai/ha): 85
- Plant response rating (lambsquarters; Preemergence, 125 g ai/ha): 90
- Plant response rating (lambsquarters; Preemergence, 250 g ai/ha): 90
- Plant response rating, Barley, Spring (barley, spring; Preemergence, 62 g ai/ha): 5
- Plant response rating, Barley, Spring (barley, spring; Preemergence, 31 g ai/ha): 5
- Plant response rating (barley, spring; Preemergence, 125 g ai/ha): 25
- Plant response rating (barley, spring; Preemergence, 250 g ai/ha): 25
- Plant response rating, Windgrass (windgrass; 62 g ai/ha): 85
- Plant response rating, Windgrass (windgrass; 125 g ai/ha): 90
- Plant response rating, Windgrass (windgrass; 31 g ai/ha): 45
- Plant response rating, Windgrass (windgrass; 250 g ai/ha): 95
- Plant response rating, Oat, Wild (oat, wild; 62 g ai/ha): 15
- Plant response rating, Oat, Wild (oat, wild; 125 g ai/ha): 20
- Plant response rating, Oat, Wild (oat, wild; 31 g ai/ha): 10
- Plant response rating, Oat, Wild (oat, wild; 250 g ai/ha): 45
- Plant response rating, Oilseed Rape (oilseed rape; 62 g ai/ha): 5
- Plant response rating, Oilseed Rape (oilseed rape; 125 g ai/ha): 5
- Plant response rating, Oilseed Rape (oilseed rape; 31 g ai/ha): 5
- Plant response rating, Oilseed Rape (oilseed rape; 250 g ai/ha): 5
- Plant response rating, Bluegrass (bluegrass; Preemergence, 62 g ai/ha): 5
- Plant response rating, Bluegrass (bluegrass; Preemergence, 31 g ai/ha): 0
- Plant response rating (bluegrass; Preemergence, 125 g ai/ha): 45
- Plant response rating (bluegrass; Preemergence, 250 g ai/ha): 55
- Plant response rating, Mustard, Wild (mustard, wild; Preemergence, 62 g ai/ha): 20
- Plant response rating, Mustard, Wild (mustard, wild; Preemergence, 31 g ai/ha): 0
- Plant response rating (mustard, wild; Preemergence, 125 g ai/ha): 25
- Plant response rating (mustard, wild; Preemergence, 250 g ai/ha): 45

Reference: US10294202B2, “Pyrrolidinones as herbicides” (FMC Corporation, priority 2013, dated 2019)
